Laboratory results taken from US11419909B2, “Compositions and methods for maintaining or enhancing homeostasis or function of female lower reproductive tract” (FAIRHAVEN HEALTH, LLC, priority 2016, dated 2022).

Conditions: plant derived raw materials

## O=C[C@H](O)[C@@H](O)[C@H](O)CO [D-Xylose source 1, D-Xylose]
  Endotoxin Level: <0.07 EU/mg
